Active and inactive are the calls of the source. The rule behind the calls is not given here.
How the values were obtained:
AN3-CA [1] = assay: Antiproliferative activity against human AN3CA cells assessed as inhibition of cell viability by CCK8 assay; assay type: functional, cell-based
KLE [2] = assay: Antimigratory activity against progesterone-resistant human KLE cells assessed as reduction in cell migration at 10 uM after 48 hrs by transwell assay; assay type: functional, cell-based
Ishikawa [3] = assay: Antitumor activity against human Ishikawa cells xenografted in mouse assessed as tumor growth inhibition at 30 mg/kg measured after 28 days relative to control; assay type: functional; details: 672 h, read-out: GI
HEC-1B cell line [4] = assay: Antiproliferative activity against human HEC1B cells assessed as inhibition of cell viability by CCK8 assay; assay type: functional, cell-based
HEC-1-A [5] = assay: Antiproliferative activity against human Hec1A cells assessed as inhibition of cell viability by CCK8 assay; assay type: functional, cell-based
KLE [6] = assay: Antiproliferative activity against human KLE cells assessed as inhibition of cell viability by CCK8 assay; assay type: functional, cell-based
Ishikawa [7] = assay: Antimigratory activity against progesterone sensitive human Ishikawa cells assessed as inhibition of cell migration at 10 uM after 48 hrs by transwell assay; assay type: functional, cell-based
Ishikawa [8] = assay: Antiproliferative activity against human Ishikawa cells assessed as inhibition of cell viability by CCK8 assay; assay type: functional, cell-based
Ishikawa [9] = assay: Inhibition of colony formation in progesterone sensitive human Ishikawa cells at 20 to 30 uM; assay type: functional, cell-based
Ishikawa [10] = assay: Induction of apoptosis in progesterone-sensitive human Ishikawa cells assessed as necrotic cells at 20 uM after 48 hrs by Annexin-V/PI staining based flow cytometry (reference value: 1.21%); assay type: functional
HEC-1-A [11] = assay: Potency index, ratio of medroxyprogesterone acetate IC50 to test compound IC50 for antiproliferative activity against human Hec1A cells assessed as inhibition of cell viability by CCK8 assay; assay type: functional
Ishikawa [12] = assay: Induction of apoptosis in progesterone-sensitive human Ishikawa cells assessed as early apoptotic cells at 20 uM after 48 hrs by Annexin-V/PI staining based flow cytometry (reference value: 1.92%); assay type: functional
KLE [13] = assay: Induction of apoptosis in progesterone-resistant human KLE cells after 48 hrs by Annexin-V/PI staining based flow cytometry; assay type: functional, cell-based
HEC-1B cell line [14] = assay: Potency index, ratio of medroxyprogesterone acetate IC50 to test compound IC50 for antiproliferative activity against human HEC1B cells assessed as inhibition of cell viability by CCK8 assay; assay type: functional
Ishikawa [15] = assay: Induction of apoptosis in progesterone-sensitive human Ishikawa cells assessed as early apoptotic cells at 10 uM after 48 hrs by Annexin-V/PI staining based flow cytometry (reference value: 1.92%); assay type: functional
[16] = target: RAC-alpha serine/threonine-protein kinase (Homo sapiens) (UniProt P31749); assay: Inhibition of AKT phosphorylation at ser 473 residue in human KLE cells at 20 uM after 48 hrs by Western blot analysis; assay type: cell-based
RAC-alpha serine/threonine-protein kinase (Homo sapiens), sequence (P31749 whole entry): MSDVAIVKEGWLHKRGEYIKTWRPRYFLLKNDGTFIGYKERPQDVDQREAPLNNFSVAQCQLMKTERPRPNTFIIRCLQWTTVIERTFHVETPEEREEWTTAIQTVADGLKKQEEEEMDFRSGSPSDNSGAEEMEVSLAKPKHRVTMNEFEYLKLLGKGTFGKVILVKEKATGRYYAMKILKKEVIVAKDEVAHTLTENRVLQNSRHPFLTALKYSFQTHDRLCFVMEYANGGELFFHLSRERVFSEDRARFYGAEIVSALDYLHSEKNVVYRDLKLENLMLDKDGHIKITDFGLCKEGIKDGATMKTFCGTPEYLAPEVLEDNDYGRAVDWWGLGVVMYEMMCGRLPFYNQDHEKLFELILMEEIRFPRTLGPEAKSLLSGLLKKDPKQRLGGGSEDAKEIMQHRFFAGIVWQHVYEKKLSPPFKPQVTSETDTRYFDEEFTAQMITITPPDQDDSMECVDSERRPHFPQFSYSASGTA

Ishikawa [17] = assay: Inhibition of colony formation in progesterone sensitive human Ishikawa cells; assay type: functional, cell-based
Ishikawa [18] = assay: Antitumor activity against human Ishikawa cells xenografted in mouse assessed as tumor growth inhibition at 15 mg/kg measured after 28 days relative to control; assay type: functional; details: 672 h, read-out: GI
Ishikawa [19] = assay: Induction of apoptosis in progesterone-sensitive human Ishikawa cells assessed as late apoptotic cells at 10 uM after 48 hrs by Annexin-V/PI staining based flow cytometry (reference value: 3.56%); assay type: functional
[20] = target: RAC-alpha serine/threonine-protein kinase (Homo sapiens) (UniProt P31749); assay: Inhibition of AKT phosphorylation at ser 473 residue in human Ishikawa cells at 20 uM after 48 hrs by Western blot analysis; assay type: cell-based
[21] = Toxicity in mouse xenografted with human Ishikawa cells assessed as effect on body weight at 3 to 15 mg/kg after 28 days; assay type: organism-based; details: in vivo, 672 h
KLE [22] = assay: Induction of apoptosis in progesterone-resistant human KLE cells assessed as necrotic cells at 20 uM after 48 hrs by Annexin-V/PI staining based flow cytometry (reference value: 1.30%); assay type: functional
Ishikawa [23] = assay: Antitumor activity against human Ishikawa cells xenografted in mouse assessed as tumor growth inhibition at 3 mg/kg measured after 28 days relative to control; assay type: functional; details: 672 h, read-out: GI
AN3-CA [24] = assay: Potency index, ratio of medroxyprogesterone acetate IC50 to test compound IC50 for antiproliferative activity against human AN3CA cells assessed as inhibition of cell viability by CCK8 assay; assay type: functional
KLE [25] = assay: Induction of apoptosis in progesterone-resistant human KLE cells assessed as early apoptotic cells at 10 uM after 48 hrs by Annexin-V/PI staining based flow cytometry (reference value: 2.85%); assay type: functional
Ishikawa [26] = assay: Induction of apoptosis in progesterone-sensitive human Ishikawa cells assessed as necrotic cells at 10 uM after 48 hrs by Annexin-V/PI staining based flow cytometry (reference value: 1.21%); assay type: functional
Ishikawa [27] = assay: Induction of apoptosis in progesterone-sensitive human Ishikawa cells after 48 hrs by Annexin-V/PI staining based flow cytometry; assay type: functional, cell-based
KLE [28] = assay: Inhibition of colony formation in progesterone resistant human KLE cells; assay type: functional, cell-based
KLE [29] = assay: Induction of apoptosis in progesterone-resistant human KLE cells assessed as early apoptotic cells at 20 uM after 48 hrs by Annexin-V/PI staining based flow cytometry (reference value: 2.85%); assay type: functional
KLE [30] = assay: Induction of apoptosis in progesterone-resistant human KLE cells assessed as necrotic cells at 10 uM after 48 hrs by Annexin-V/PI staining based flow cytometry (reference value: 1.30%); assay type: functional
KLE [31] = assay: Induction of apoptosis in progesterone-resistant human KLE cells assessed as late apoptotic cells at 10 uM after 48 hrs by Annexin-V/PI staining based flow cytometry (reference value: 3.56%); assay type: functional
KLE [32] = assay: Induction of apoptosis in progesterone-resistant human KLE cells assessed as late apoptotic cells at 20 uM after 48 hrs by Annexin-V/PI staining based flow cytometry (reference value: 3.56%); assay type: functional
Ishikawa [33] = assay: Induction of apoptosis in progesterone-sensitive human Ishikawa cells assessed as late apoptotic cells at 20 uM after 48 hrs by Annexin-V/PI staining based flow cytometry (reference value: 3.56%); assay type: functional
KLE [34] = assay: Potency index, ratio of medroxyprogesterone acetate IC50 to test compound IC50 for antiproliferative activity against human KLE cells assessed as inhibition of cell viability by CCK8 assay; assay type: functional
Ishikawa [35] = assay: Potency index, ratio of medroxyprogesterone acetate IC50 to test compound IC50 for antiproliferative activity against human Ishikawa cells assessed as inhibition of cell viability by CCK8 assay; assay type: functional

CC(=O)O[C@]1(C(C)=O)CC[C@H]2[C@@H]3C[C@H](C)C4=CC(=O)CC[C@]4(C)[C@H]3CC[C@@]21C [MEDROXYPROGESTERONE ACETATE]
IC50 (AN3-CA [1]): 37.1 µM | Activity (KLE [2]): inactive | inhibition in vivo at 30 mg/kg (Ishikawa [3]): 22.6% | IC50 (HEC-1B cell line [4]): 60.4 µM | IC50 (HEC-1-A [5]): 51.8 µM | IC50 (KLE [6]): > 80 µM | inhibition (Ishikawa [7]): Active | IC50 (Ishikawa [8]): 37 µM | inhibition (Ishikawa [9]): Active

OCCN1CCN(CCCN2c3ccccc3Sc3ccc(Cl)cc32)CC1 [PERPHENAZINE]
IC50 (AN3-CA [1]): 25.4 µM | Activity (KLE [2]): Active | Activity (Ishikawa [10]): 2.68% | Ratio IC50 (HEC-1-A [11]): 2.2 | Activity (Ishikawa [12]): 6.76% | Activity (KLE [13]): Dose-dependent effect | Ratio IC50 (HEC-1B cell line [14]): 2 | Activity (Ishikawa [15]): 6.9% | inhibition [16]: Active | inhibition (Ishikawa [17]): Dose-dependent effect | inhibition in vivo at 15 mg/kg (Ishikawa [18]): 79.9% | IC50 (HEC-1B cell line [4]): 29.8 µM | Activity (Ishikawa [19]): 7.4% | IC50 (HEC-1-A [5]): 23.3 µM | inhibition [20]: Active | IC50 (KLE [6]): 30.8 µM | inhibition (Ishikawa [7]): Active | Activity [21]: Non-Toxic | Activity (KLE [22]): 2.68% | inhibition in vivo at 3 mg/kg (Ishikawa [23]): 58.1% | Ratio IC50 (AN3-CA [24]): 1.5 | Activity (KLE [25]): 4.33% | Activity (Ishikawa [26]): 2.64% | Activity (Ishikawa [27]): Dose-dependent effect | inhibition (KLE [28]): Dose-dependent effect | Activity (KLE [29]): 6.07% | Activity (KLE [30]): 5.45% | IC50 (Ishikawa [8]): 19.4 µM | Activity (KLE [31]): 7.88% | Activity (KLE [32]): 11.41% | Activity (Ishikawa [33]): 12.52% | Ratio IC50 (KLE [34]): >2.6 | Ratio IC50 (Ishikawa [35]): 1.9
